Experiments:
[1] = Bi-directional Caco-2 cell permeability; assay type: in vitro ADME; conditions: human, Caco-2
Method: (§1) Caco-2 cell permeability was assessed to predict the oral absorption of SPN. Cell culture and transport studies were performed as previously described. Briefly, for the bi-directional transport studies, the cells were seeded at a density of 1 × 10^5 cells/well, and the cell medium was replaced until they formed confluent monolayers. On the 25th day, the cell monolayers were washed with pre-warmed HBSS buffer. […] Before the experiment, the integrity of the cell monolayers was evaluated by measuring the transepithelial electrical resistance using a Millicell ohmmeter. After 2 h incubation at 37 °C, samples were withdrawn from both sides, respectively. All samples were stored at −80 °C until LC-MS/MS analysis, and all experiments were performed in triplicate.
(§2) The apparent permeability coefficient (Papp) was calculated using the following equation. Papp = (Vr/C0) × (1/A) × ([Drug]/t) where, Vr is the volume of medium in the receiver chamber, C0 is the donor compartment concentration at time zero, A is the area of the cell monolayer, t is the treatment time of the drug, and [Drug] is the drug concentration in the receiver chamber.

Caco-2 cells = assay: Bi-directional Caco-2 cell permeability; assay type: in vitro ADME
Method: as §1, §2

[2] = parameters: method as in PMID 26068519; conditions: rats, oral 12.9 mg/kg SPN; cited from earlier work
[3] = Unbound fraction in human liver microsomes (rapid equilibrium dialysis); assay type: in vitro ADME; conditions: microsomal protein 0.1 mg/mL, n = 3
Method: The human liver microsomal incubation mixtures (final concentration 0.1 mg/mL) without NADPH generating system were used to determine the unbound fraction of SPN. Other procedures were similar to those of plasma protein binding assay.

[4] = test system: CYP1A2, CYP2A6, CYP2B6, CYP2C8, CYP2C9, CYP2C19, CYP2D6, CYP2E1, and CYP3A4; assay: Time-dependent inactivation (IC50 shift) of the nine CYP isoforms in human liver microsomes; assay type: biochemical; conditions: 30 min pre-incubation with human liver microsomes in the presence of NADPH
Method: Pooled human liver microsomes (1 mg/mL) were incubated with SPN (0−50 µM) for 30 min at 37 °C in the absence or presence of an NADPH-generating system (i.e., the “inactivation incubation”). After inactivation incubation, aliquots (10 μL) were transferred into fresh incubation tubes (final volume 100 μL) containing an NADPH-generating system and each P450-selective substrate cocktail set. The reaction mixtures were incubated for 15 min at 37 °C in a shaking water bath. After incubation, the reactions were stopped by adding 200 µL of ice-cold acetonitrile containing 2 µM chlorpropamide, as an internal standard. The incubation mixtures were centrifuged (16,000× g, 15 min) and 5 μL of the supernatant was injected into the LC-MS/MS system. All incubations were performed in triplicate, and the data are shown as the mean ± standard deviation.

CYP2C9 = molecular target: T1, CYP2C9 (Homo sapiens, UniProt P11712); assay: Reversible CYP2C9 inhibition, cocktail assay (tolbutamide 4-hydroxylase) in human liver microsomes; assay type: biochemical; conditions: human liver microsomes 0.1 mg/mL, tolbutamide probe, n = 3
T1 construct: tissue Corning Life Sciences; host or cells: pooled human liver microsomes, 150 donors
T1 sequence (P11712 whole entry): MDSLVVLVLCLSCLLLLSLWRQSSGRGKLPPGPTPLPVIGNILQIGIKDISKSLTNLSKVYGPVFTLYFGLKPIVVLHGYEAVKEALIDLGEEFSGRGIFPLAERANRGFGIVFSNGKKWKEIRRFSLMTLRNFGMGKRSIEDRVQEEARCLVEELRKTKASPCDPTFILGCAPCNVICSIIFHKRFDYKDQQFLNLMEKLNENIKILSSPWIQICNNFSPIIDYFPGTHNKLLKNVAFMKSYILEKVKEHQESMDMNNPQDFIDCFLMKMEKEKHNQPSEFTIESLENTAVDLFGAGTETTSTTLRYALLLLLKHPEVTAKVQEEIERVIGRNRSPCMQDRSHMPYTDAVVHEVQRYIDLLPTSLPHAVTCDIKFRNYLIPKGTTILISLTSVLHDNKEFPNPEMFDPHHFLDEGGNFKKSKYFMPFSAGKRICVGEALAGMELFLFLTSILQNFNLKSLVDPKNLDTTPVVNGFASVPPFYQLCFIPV
Method: The inhibitory effects of SPN on CYP1A2, CYP2A6, CYP2B6, CYP2C8, CYP2C9, CYP2C19, CYP2D6, CYP2E1, and CYP3A4 were evaluated in pooled human liver microsomes through the use of specific CYP probe substrates (cocktail assay), as previously described with a slight modification. Concentrations of each CYP probe in Table 1 were used close to their reported Km values.
Briefly, a 90-µL incubation mixture, including pooled human liver microsomes (final concentration 0.1 mg/mL), 50 mM phosphate buffer (pH 7.4), each CYP-probe substrate cocktail set, and SPN (0–50 μM), was pre-incubated for 5 min at 37 °C. SPN was dissolved in methanol and spiked into the incubation mixture to a final concentration of 0.5% methanol. […]
The IC50 values were calculated via nonlinear least-squares regression analysis from logarithmic plots of inhibitor concentration versus percentage of activity remaining after inhibition, using SigmaPlot (ver. 14.0; Systat Software Inc, Chicago, IL, USA). The Ki values were determined from the equations for a single substrate single inhibitor model and the software available in the SigmaPlot Enzyme Kinetics module. Competitive, non-competitive, uncompetitive, or mixed inhibition models were evaluated and ranked according to the best fit based on Akaike Information Criterion (AIC) values. […]

CYP3A4 = molecular target: T2, CYP3A4 (Homo sapiens, UniProt P08684); assay: Inhibition of CYP3A4-catalyzed testosterone 6β-hydroxylation; assay type: biochemical; conditions: data not shown
T2 construct: tissue Corning Life Sciences; host or cells: pooled human liver microsomes, 150 donors
T2 sequence (P08684 whole entry): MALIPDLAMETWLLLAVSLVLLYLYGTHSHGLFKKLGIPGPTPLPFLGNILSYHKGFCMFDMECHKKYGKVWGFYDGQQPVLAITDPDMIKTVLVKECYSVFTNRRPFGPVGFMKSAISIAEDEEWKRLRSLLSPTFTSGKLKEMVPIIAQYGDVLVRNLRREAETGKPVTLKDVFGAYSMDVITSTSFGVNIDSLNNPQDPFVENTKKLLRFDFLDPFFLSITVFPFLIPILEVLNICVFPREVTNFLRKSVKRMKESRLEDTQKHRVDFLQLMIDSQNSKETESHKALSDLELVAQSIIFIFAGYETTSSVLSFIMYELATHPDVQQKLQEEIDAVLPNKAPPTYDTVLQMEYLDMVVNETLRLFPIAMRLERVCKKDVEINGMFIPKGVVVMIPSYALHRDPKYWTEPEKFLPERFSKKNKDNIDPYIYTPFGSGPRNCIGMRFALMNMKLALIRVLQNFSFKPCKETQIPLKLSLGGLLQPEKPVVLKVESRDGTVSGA
Description: The reversible inhibition of SPN-mediated CYP3A4 activity was less consistent with the published literature. […] They only focused on the in vitro inhibitory potentials of several flavonoids against CYP3A4 activity. To the best of our knowledge, to date, bufalin has not been used as the in vitro probe substrate for the CYP3A4 activity, and the reference material of 5′-hydroxybufalin is not commercially available. Because of the presence of several binding regions within the CYP3A4 active site, multiple probe substrates are often used for in vitro CYP3A4-mediated drug–drug interaction studies, including midazolam, nifedipine, and testosterone. […] Altogether, the in vitro CYP3A4 inhibition by SPN seemed to be substrate-specific.

Structure (SMILES): CC(C)=CCc1cc([C@@H]2CC(=O)c3ccc(O)c(CC=C(C)C)c3O2)cc(CC=C(C)C)c1O [SPN, (‒)-Sophoranone]
- Papp A→B at 2 h, 10 µM ([1]; 10 μM, 2 h, n = 3): 0.115 ± 0.0369 ×10⁻⁶ cm/s
- Papp B→A at 2 h, 10 µM ([1]; 10 μM, 2 h, n = 3): 0.101 ± 0.00444 ×10⁻⁶ cm/s
- Papp A→B at 2 h, 50 µM ([1]; 50 μM, 2 h, n = 3): 0.172 ± 0.0488 ×10⁻⁶ cm/s
- Papp B→A at 2 h, 50 µM ([1]; 50 μM, 2 h, n = 3): 0.152 ± 0.0353 ×10⁻⁶ cm/s
- efflux ratio at 2 h ([1]; not a substrate for P-gp and BCRP, read-out: efflux ratio (B-to-A/A-to-B)): < 2
- Papp A-to-B as % of propranolol Papp (Caco-2 cells; 10 μM): 0.429%
- Papp A-to-B as % of propranolol Papp (Caco-2 cells; 50 μM): 0.642%
- maximum plasma concentration (Cmax) [2]: approximately 13.1 ng/mL
- fraction unbound at 4 h, 10 µM ([3]; 10 μM): 0.00621 ± 0.000405
- fraction unbound at 4 h, 50 µM ([3]; 50 μM): 0.00724 ± 0.0017
- shift in IC50 after pre-incubation (time-dependent inactivation of the nine CYPs) [4]: no obvious shift in IC50
- IC50 (CYP2C9): 0.966 ± 0.149 µM
- IC50 (CYP3A4): 31.5 ± 4.79 µM
